According to patent US9714244B2, “Substituted pyrido[4,3-d]pyrimidines as Wee-1 inhibitors” (ALMAC DISCOVERY LIMITED, priority 2013, dated 2017):

Experiments:
[1] = target: RET (Homo sapiens (Human), UniProt P07949); assay: SelectScreen Kinase Profiling: RET; type: biochemical; conditions: 300-350 nM
Excerpt: (§1) Table 2 below highlights the selectivity of a representative compound of the invention against a panel of 50 kinases (assessed using the Invitrogen SelectScreen® Kinase Profiling Service).

[2] = target: KIT (Homo sapiens (Human), UniProt P10721); assay: SelectScreen Kinase Profiling: KIT; type: biochemical; conditions: 300-350 nM
Excerpt: as §1

[3] = target: RPS6KB1 (p70S6K) (Homo sapiens (Human), UniProt P23443); assay: SelectScreen Kinase Profiling: RPS6KB1; type: biochemical; conditions: 300-350 nM
Excerpt: as §1

[4] = target: ROCK1 (Homo sapiens (Human), UniProt Q13464); assay: SelectScreen Kinase Profiling: ROCK1; type: biochemical; conditions: 300-350 nM
Excerpt: as §1

[5] = target: MARK2 (Homo sapiens (Human), UniProt Q7KZI7); assay: SelectScreen Kinase Profiling: MARK2; type: biochemical; conditions: 300-350 nM
Excerpt: as §1

[6] = target: PLK1 (Homo sapiens (Human), UniProt P53350); assay: SelectScreen Kinase Profiling: PLK1; type: biochemical; conditions: 300-350 nM
Excerpt: as §1

[7] = target: Src (Homo sapiens (Human), UniProt P12931); assay: SelectScreen Kinase Profiling: SRC; type: biochemical; conditions: 300-350 nM
[8] = target: IRAK4 (Homo sapiens (Human), UniProt Q9NWZ3); assay: SelectScreen Kinase Profiling: IRAK4; type: biochemical; conditions: 300-350 nM
Excerpt: as §1

[9] = target: PRKACA (PKA) (Homo sapiens (Human), UniProt P17612); assay: SelectScreen Kinase Profiling: PRKACA; type: biochemical; conditions: 300-350 nM
Excerpt: as §1

[10] = target: FRAP1 (mTOR) (Homo sapiens (Human), UniProt P42345); assay: SelectScreen Kinase Profiling: FRAP1; type: biochemical; conditions: 300-350 nM
Excerpt: as §1

[11] = target: EPHA2 (Homo sapiens (Human), UniProt P29317); assay: SelectScreen Kinase Profiling: EPHA2; type: biochemical; conditions: 300-350 nM
Excerpt: as §1

[12] = target: KDR (VEGFR2) (Homo sapiens (Human), UniProt P35968); assay: SelectScreen Kinase Profiling: KDR; type: biochemical; conditions: 300-350 nM
Excerpt: as §1

[13] = target: ERBB2 (HER2) (Homo sapiens (Human), UniProt P04626); assay: SelectScreen Kinase Profiling: ERBB2; type: biochemical; conditions: 300-350 nM
Sequence of ERBB2 (HER2) (P04626 23-1255): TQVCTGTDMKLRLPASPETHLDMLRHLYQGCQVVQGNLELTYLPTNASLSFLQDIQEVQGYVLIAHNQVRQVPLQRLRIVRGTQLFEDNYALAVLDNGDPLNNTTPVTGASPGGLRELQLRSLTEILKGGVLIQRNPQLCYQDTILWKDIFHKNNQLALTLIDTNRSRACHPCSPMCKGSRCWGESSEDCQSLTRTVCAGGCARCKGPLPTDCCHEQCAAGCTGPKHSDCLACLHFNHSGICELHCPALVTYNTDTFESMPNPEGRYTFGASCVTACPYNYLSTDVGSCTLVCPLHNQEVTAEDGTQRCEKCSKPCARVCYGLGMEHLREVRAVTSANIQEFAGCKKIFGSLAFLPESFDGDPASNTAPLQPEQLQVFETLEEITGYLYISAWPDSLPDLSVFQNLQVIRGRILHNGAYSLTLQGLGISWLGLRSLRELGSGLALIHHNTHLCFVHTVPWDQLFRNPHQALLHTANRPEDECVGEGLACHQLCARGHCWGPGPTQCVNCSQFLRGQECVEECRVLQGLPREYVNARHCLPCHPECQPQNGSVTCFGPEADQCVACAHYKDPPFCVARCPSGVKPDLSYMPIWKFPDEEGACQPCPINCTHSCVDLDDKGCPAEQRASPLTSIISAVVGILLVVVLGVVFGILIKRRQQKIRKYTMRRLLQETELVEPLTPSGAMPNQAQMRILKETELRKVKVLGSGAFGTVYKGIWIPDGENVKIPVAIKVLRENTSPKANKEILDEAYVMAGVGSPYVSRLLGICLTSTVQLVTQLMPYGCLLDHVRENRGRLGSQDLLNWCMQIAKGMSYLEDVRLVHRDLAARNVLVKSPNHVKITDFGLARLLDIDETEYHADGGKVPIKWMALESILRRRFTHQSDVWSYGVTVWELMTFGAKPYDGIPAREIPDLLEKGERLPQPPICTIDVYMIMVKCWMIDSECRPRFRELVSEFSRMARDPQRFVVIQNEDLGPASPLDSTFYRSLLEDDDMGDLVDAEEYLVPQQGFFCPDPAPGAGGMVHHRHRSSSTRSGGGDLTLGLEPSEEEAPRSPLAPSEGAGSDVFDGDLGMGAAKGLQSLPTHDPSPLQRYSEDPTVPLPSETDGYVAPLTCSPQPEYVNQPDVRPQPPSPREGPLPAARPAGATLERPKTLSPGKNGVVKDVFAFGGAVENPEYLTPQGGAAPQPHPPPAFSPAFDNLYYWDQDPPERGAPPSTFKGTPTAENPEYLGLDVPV
Excerpt: as §1

[14] = target: GSK3B (GSK3 beta) (Homo sapiens (Human), UniProt P49841); assay: SelectScreen Kinase Profiling: GSK3B; type: biochemical; conditions: 300-350 nM
Excerpt: as §1

[15] = target: MET (cMet) (Homo sapiens (Human), UniProt P08581); assay: SelectScreen Kinase Profiling: MET; type: biochemical; conditions: 300-350 nM
Excerpt: as §1

[16] = target: NTRK1 (TRKA) (Homo sapiens (Human), UniProt P04629); assay: SelectScreen Kinase Profiling: NTRK1; type: biochemical; conditions: 300-350 nM
Excerpt: as §1

[17] = target: INSR (Homo sapiens (Human), UniProt P06213); assay: SelectScreen Kinase Profiling: INSR; type: biochemical; conditions: 300-350 nM
Excerpt: as §1

[18] = target: LCK (Homo sapiens (Human), UniProt P06239); assay: SelectScreen Kinase Profiling: LCK; type: biochemical; conditions: 300-350 nM
Sequence of LCK (P06239 whole entry): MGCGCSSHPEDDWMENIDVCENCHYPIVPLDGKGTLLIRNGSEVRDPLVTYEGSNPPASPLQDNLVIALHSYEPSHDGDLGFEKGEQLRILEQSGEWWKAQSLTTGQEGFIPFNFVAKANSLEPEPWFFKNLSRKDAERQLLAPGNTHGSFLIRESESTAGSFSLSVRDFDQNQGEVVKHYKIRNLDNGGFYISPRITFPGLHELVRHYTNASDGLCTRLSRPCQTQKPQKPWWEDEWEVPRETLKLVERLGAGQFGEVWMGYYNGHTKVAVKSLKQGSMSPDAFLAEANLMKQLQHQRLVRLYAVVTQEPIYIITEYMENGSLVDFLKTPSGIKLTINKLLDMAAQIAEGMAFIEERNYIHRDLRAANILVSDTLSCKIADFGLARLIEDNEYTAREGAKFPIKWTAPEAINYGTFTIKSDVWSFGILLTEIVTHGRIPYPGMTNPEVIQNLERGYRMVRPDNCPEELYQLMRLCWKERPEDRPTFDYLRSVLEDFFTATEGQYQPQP
Excerpt: as §1

[19] = target: SYK (Homo sapiens (Human), UniProt P43405); assay: SelectScreen Kinase Profiling: SYK; type: biochemical; conditions: 300-350 nM
Excerpt: as §1

[20] = target: MAP2K1 (MEK1) (Homo sapiens (Human), UniProt Q02750); assay: SelectScreen Kinase Profiling: MAP2K1; type: biochemical; conditions: 300-350 nM
Excerpt: as §1

[21] = target: CSNK1G2 (CK1 gamma 2) (Homo sapiens (Human), UniProt P78368); assay: SelectScreen Kinase Profiling: CSNK1G2; type: biochemical; conditions: 300-350 nM
Excerpt: as §1

[22] = target: ACVR1B (ALK4) (Homo sapiens (Human), UniProt P36896); assay: SelectScreen Kinase Profiling: ACVR1B; type: biochemical; conditions: 300-350 nM
Excerpt: as §1

[23] = target: PHKG2 (Homo sapiens (Human), UniProt P15735); assay: SelectScreen Kinase Profiling: PHKG2; type: biochemical; conditions: 300-350 nM
Excerpt: as §1

[24] = target: PAK4 (Homo sapiens (Human), UniProt O96013); assay: SelectScreen Kinase Profiling: PAK4; type: biochemical; conditions: 300-350 nM
Excerpt: as §1

[25] = target: ABL1 (Homo sapiens (Human), UniProt P00519); assay: SelectScreen Kinase Profiling: ABL1; type: biochemical; conditions: 300-350 nM
Excerpt: as §1

[26] = target: MAP4K4 (HGK) (Homo sapiens (Human), UniProt O95819); assay: SelectScreen Kinase Profiling: MAP4K4; type: biochemical; conditions: 300-350 nM
Excerpt: as §1

[27] = target: DYRK3 (Homo sapiens (Human), UniProt O43781); assay: SelectScreen Kinase Profiling: DYRK3; type: biochemical; conditions: 300-350 nM
Excerpt: as §1

[28] = target: MAPK8 (JNK1) (Homo sapiens (Human), UniProt P45983); assay: SelectScreen Kinase Profiling: MAPK8; type: biochemical; conditions: 300-350 nM
Sequence of MAPK8 (JNK1) (P45983 whole entry): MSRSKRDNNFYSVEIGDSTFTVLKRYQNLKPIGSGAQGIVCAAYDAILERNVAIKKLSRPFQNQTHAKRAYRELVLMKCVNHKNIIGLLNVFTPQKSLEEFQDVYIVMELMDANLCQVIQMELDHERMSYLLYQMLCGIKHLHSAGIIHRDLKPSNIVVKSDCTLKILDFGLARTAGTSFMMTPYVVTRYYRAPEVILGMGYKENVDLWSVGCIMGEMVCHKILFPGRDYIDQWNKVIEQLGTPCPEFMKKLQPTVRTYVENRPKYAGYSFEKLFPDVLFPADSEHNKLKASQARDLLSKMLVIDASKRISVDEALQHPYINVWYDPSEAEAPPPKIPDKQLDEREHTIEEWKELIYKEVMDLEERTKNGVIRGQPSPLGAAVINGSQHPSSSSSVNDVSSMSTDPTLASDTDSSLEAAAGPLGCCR
Excerpt: as §1

[29] = target: IGF1R (Homo sapiens (Human), UniProt P08069); assay: SelectScreen Kinase Profiling: IGF1R; type: biochemical; conditions: 300-350 nM
Sequence of IGF1R (P08069 31-1367): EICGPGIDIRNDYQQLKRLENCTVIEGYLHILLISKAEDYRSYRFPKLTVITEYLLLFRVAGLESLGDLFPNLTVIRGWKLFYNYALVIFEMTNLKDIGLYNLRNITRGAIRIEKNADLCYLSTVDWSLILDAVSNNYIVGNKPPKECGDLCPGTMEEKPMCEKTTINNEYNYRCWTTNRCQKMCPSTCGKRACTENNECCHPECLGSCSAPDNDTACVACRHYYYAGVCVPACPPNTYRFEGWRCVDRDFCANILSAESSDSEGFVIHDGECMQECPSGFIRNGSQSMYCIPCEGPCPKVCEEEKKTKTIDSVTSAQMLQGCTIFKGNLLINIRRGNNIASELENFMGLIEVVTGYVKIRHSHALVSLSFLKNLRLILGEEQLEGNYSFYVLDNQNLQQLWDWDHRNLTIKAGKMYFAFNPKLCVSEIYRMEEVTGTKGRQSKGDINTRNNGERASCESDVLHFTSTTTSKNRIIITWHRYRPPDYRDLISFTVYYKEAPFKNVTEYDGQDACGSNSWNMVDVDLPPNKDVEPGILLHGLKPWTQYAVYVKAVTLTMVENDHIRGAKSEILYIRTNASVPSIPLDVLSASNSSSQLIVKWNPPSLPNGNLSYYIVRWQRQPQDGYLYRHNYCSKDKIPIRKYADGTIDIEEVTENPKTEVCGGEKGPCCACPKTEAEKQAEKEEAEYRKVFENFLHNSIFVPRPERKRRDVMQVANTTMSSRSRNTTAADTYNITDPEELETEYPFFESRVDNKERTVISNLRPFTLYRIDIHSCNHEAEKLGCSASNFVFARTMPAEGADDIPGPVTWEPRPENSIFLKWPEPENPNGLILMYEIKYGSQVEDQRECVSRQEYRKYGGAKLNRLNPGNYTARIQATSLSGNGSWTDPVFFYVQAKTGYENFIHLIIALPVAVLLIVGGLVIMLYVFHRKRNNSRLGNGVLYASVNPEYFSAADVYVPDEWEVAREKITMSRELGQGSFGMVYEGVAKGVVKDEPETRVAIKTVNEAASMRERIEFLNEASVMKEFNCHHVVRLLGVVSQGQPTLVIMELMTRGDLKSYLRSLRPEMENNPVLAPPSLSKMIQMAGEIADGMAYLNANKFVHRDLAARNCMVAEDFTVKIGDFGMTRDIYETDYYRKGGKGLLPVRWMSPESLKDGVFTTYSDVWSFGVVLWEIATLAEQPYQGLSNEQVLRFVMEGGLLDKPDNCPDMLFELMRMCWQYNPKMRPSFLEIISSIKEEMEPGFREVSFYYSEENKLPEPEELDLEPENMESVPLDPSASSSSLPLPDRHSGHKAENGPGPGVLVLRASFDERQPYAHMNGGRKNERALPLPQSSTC
Excerpt: as §1

[30] = target: BTK (Homo sapiens (Human), UniProt Q06187); assay: SelectScreen Kinase Profiling: BTK; type: biochemical; conditions: 300-350 nM
Excerpt: as §1

[31] = target: MAPK14 (p38 alpha) (Homo sapiens (Human), UniProt Q16539); assay: SelectScreen Kinase Profiling: MAPK14; type: biochemical; conditions: 300-350 nM
Excerpt: as §1

[32] = target: AKT1 (PKB alpha) (Homo sapiens (Human), UniProt P31749); assay: SelectScreen Kinase Profiling: AKT1; type: biochemical; conditions: 300-350 nM
Excerpt: as §1

[33] = target: MAPKAPK2 (Homo sapiens (Human), UniProt P49137); assay: SelectScreen Kinase Profiling: MAPKAPK2; type: biochemical; conditions: 300-350 nM
Excerpt: as §1

[34] = target: FLT3 (Homo sapiens (Human), UniProt P36888); assay: SelectScreen Kinase Profiling: FLT3; type: biochemical; conditions: 300-350 nM
Excerpt: as §1

[35] = target: PIM1 (Homo sapiens (Human), UniProt P11309); assay: SelectScreen Kinase Profiling: PIM1; type: biochemical; conditions: 300-350 nM
Sequence of PIM1 (P11309 whole entry): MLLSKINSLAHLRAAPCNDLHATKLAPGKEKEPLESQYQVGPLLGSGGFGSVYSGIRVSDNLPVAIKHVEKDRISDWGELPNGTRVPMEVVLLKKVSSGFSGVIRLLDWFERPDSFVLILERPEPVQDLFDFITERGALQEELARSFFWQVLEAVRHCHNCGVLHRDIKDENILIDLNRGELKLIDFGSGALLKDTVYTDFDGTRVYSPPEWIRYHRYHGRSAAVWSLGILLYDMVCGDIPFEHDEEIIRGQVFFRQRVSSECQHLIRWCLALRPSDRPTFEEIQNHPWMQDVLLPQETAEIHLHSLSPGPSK
Excerpt: as §1

[36] = target: CSNK2A1 (CK2 alpha 1) (Homo sapiens (Human), UniProt P68400); assay: SelectScreen Kinase Profiling: CSNK2A1; type: biochemical; conditions: 300-350 nM
Excerpt: as §1

[37] = target: NEK1 (Homo sapiens (Human), UniProt Q96PY6); assay: SelectScreen Kinase Profiling: NEK1; type: biochemical; conditions: 300-350 nM
Sequence of NEK1 (Q96PY6 whole entry): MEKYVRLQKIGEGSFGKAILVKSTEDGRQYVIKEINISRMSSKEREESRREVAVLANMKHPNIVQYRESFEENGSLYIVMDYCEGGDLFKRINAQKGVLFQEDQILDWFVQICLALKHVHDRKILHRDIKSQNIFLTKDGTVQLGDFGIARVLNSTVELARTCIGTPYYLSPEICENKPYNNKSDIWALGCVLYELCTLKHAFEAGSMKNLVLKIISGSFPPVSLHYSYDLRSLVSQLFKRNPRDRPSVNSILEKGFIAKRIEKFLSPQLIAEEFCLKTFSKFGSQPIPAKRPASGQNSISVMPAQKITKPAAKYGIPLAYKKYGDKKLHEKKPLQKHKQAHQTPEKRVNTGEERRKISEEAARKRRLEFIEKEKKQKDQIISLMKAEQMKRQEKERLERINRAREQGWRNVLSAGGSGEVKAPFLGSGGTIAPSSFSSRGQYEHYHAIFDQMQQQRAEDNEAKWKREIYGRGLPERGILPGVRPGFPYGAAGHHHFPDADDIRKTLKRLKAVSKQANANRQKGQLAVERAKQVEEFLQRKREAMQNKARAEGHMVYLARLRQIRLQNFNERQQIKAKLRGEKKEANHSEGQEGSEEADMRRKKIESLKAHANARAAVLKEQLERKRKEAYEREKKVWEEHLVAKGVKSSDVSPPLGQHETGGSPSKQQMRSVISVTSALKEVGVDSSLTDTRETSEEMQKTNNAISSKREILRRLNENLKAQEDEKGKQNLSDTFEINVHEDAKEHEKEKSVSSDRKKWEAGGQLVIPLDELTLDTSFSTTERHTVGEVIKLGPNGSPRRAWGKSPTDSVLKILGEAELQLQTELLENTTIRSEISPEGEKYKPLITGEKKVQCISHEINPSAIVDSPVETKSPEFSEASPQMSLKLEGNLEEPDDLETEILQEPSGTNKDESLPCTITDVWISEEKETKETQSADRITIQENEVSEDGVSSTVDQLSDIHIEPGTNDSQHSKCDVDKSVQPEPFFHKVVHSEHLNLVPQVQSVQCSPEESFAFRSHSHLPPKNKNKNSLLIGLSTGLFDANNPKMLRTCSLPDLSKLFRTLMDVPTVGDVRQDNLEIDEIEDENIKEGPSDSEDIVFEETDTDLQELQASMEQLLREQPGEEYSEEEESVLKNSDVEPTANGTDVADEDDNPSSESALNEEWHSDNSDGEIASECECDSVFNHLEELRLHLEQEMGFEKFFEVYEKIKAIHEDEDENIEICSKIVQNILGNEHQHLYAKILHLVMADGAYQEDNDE
Excerpt: as §1

[38] = target: FGFR1 (Homo sapiens (Human), UniProt P11362); assay: SelectScreen Kinase Profiling: FGFR1; type: biochemical; conditions: 300-350 nM
Excerpt: as §1

[39] = target: JAK3 (Homo sapiens (Human), UniProt P52333); assay: SelectScreen Kinase Profiling: JAK3; type: biochemical; conditions: 300-350 nM
Excerpt: as §1

[40] = target: CHEK1 (CHK1) (Homo sapiens (Human), UniProt O14757); assay: SelectScreen Kinase Profiling: CHEK1; type: biochemical; conditions: 300-350 nM
Excerpt: as §1

[41] = target: IKBKB (IKK beta) (Homo sapiens (Human), UniProt O14920); assay: SelectScreen Kinase Profiling: IKBKB; type: biochemical; conditions: 300-350 nM
Excerpt: as §1

[42] = target: MAPK1 (ERK2) (Homo sapiens (Human), UniProt P28482); assay: SelectScreen Kinase Profiling: MAPK1; type: biochemical; conditions: 300-350 nM
Excerpt: as §1

[43] = test system: Src; conditions: quoted in column head, BMCL 2005 p1931; cited from earlier work
[44] = target: TEK (Tie2) (Homo sapiens (Human), UniProt Q02763); assay: SelectScreen Kinase Profiling: TEK; type: biochemical; conditions: 300-350 nM
Excerpt: as §1

[45] = target: AURKA (Aurora A) (Homo sapiens (Human), UniProt O14965); assay: SelectScreen Kinase Profiling: AURKA; type: biochemical; conditions: 300-350 nM
Excerpt: as §1

[46] = target: PRKCB1 (PKC beta I) (Homo sapiens (Human), UniProt P05771); assay: SelectScreen Kinase Profiling: PRKCB1; type: biochemical; conditions: 300-350 nM
Excerpt: as §1

SMILES: CCN(CC)CCOc1ccc(Nc2ncc3cc(-c4c(Cl)cccc4Cl)c(=O)n(C)c3n2)cc1 [Compound 1 BMCL, 2005, p1931, reference compound]
- Inhibition RET [1]: + (Inhibition >75% at 300-350 nM)
- Inhibition KIT [2]: + (Inhibition >75% at 300-350 nM)
- Inhibition RPS6KB1 (p70S6K) [3]: − (Inhibition <75% @ 300-350 nM)
- Inhibition ROCK1 [4]: − (Inhibition <75% @ 300-350 nM)
- Inhibition MARK2 [5]: + (Inhibition >75% at 300-350 nM)
- Inhibition PLK1 [6]: − (Inhibition <75% @ 300-350 nM)
- Inhibition SRC [7]: + (Inhibition >75% at 300-350 nM)
- Inhibition IRAK4 [8]: − (Inhibition <75% @ 300-350 nM)
- Inhibition PRKACA (PKA) [9]: − (Inhibition <75% @ 300-350 nM)
- Inhibition FRAP1 (mTOR) [10]: − (Inhibition <75% @ 300-350 nM)
- Inhibition EPHA2 [11]: + (Inhibition >75% at 300-350 nM)
- Inhibition KDR (VEGFR2) [12]: + (Inhibition >75% at 300-350 nM)
- Inhibition ERBB2 (HER2) [13]: − (Inhibition <75% @ 300-350 nM)
- Inhibition GSK3B (GSK3 beta) [14]: − (Inhibition <75% @ 300-350 nM)
- Inhibition MET (cMet) [15]: − (Inhibition <75% @ 300-350 nM)
- Inhibition NTRK1 (TRKA) [16]: − (Inhibition <75% @ 300-350 nM)
- Inhibition INSR [17]: − (Inhibition <75% @ 300-350 nM)
- Inhibition LCK [18]: + (Inhibition >75% at 300-350 nM)
- Inhibition SYK [19]: − (Inhibition <75% @ 300-350 nM)
- Inhibition MAP2K1 (MEK1) [20]: − (Inhibition <75% @ 300-350 nM)
- Inhibition CSNK1G2 (CK1 gamma 2) [21]: − (Inhibition <75% @ 300-350 nM)
- Inhibition ACVR1B (ALK4) [22]: + (Inhibition >75% at 300-350 nM)
- Inhibition PHKG2 [23]: − (Inhibition <75% @ 300-350 nM)
- Inhibition PAK4 [24]: − (Inhibition <75% @ 300-350 nM)
- Inhibition ABL1 [25]: + (Inhibition >75% at 300-350 nM)
- Inhibition MAP4K4 (HGK) [26]: + (Inhibition >75% at 300-350 nM)
- Inhibition DYRK3 [27]: − (Inhibition <75% @ 300-350 nM)
- Inhibition MAPK8 (JNK1) [28]: − (Inhibition <75% @ 300-350 nM)
- Inhibition IGF1R [29]: − (Inhibition <75% @ 300-350 nM)
- Inhibition BTK [30]: + (Inhibition >75% at 300-350 nM)
- Inhibition MAPK14 (p38 alpha) [31]: + (Inhibition >75% at 300-350 nM)
- Inhibition AKT1 (PKB alpha) [32]: − (Inhibition <75% @ 300-350 nM)
- Inhibition MAPKAPK2 [33]: − (Inhibition <75% @ 300-350 nM)
- Inhibition FLT3 [34]: + (Inhibition >75% at 300-350 nM)
- Inhibition PIM1 [35]: − (Inhibition <75% @ 300-350 nM)
- Inhibition CSNK2A1 (CK2 alpha 1) [36]: − (Inhibition <75% @ 300-350 nM)
- Inhibition NEK1 [37]: − (Inhibition <75% @ 300-350 nM)
- Inhibition FGFR1 [38]: + (Inhibition >75% at 300-350 nM)
- Inhibition JAK3 [39]: + (Inhibition >75% at 300-350 nM)
- Inhibition CHEK1 (CHK1) [40]: − (Inhibition <75% @ 300-350 nM)
- Inhibition IKBKB (IKK beta) [41]: − (Inhibition <75% @ 300-350 nM)
- Inhibition MAPK1 (ERK2) [42]: − (Inhibition <75% @ 300-350 nM)
- IC50 [43]: 6 nM
- Inhibition TEK (Tie2) [44]: − (Inhibition <75% @ 300-350 nM)
- Inhibition AURKA (Aurora A) [45]: − (Inhibition <75% @ 300-350 nM)
- Inhibition PRKCB1 (PKC beta I) [46]: − (Inhibition <75% @ 300-350 nM)
